This is an account of results in BindingDB's records for patent US20240246984 (Beijing Innocare Pharma Tech, 2024).

Structures are written as SMILES.

In experiment [1] the target is Tyrosine-protein kinase JAK2 (Homo sapiens, UniProt O60674). Description: JAK2 Activity Inhibition Assay. The protocol:
The enzymatic activity of JAK2 was assessed by detecting the substrate phosphorylation level in a kinase reaction with a homogeneous time-resolved fluorescence (HTRF) kinase detection kit (Cisbio, 62TK0PEC). A reaction buffer contained an enzyme buffer (1×), 5 mM MgCl2, 1 mM DTT and 0.01% Brij35 from the kit; a human recombinant JAK2 protein (Carna Biosciences, 08-045) was diluted to a kinase reaction solution of 0.15 ng/μL with the reaction buffer; a substrate reaction solution contained 2.5 μM ATP and a biotin-labeled tyrosine kinase substrate diluted to 0.25 μM with the reaction buffer; a detection buffer contained 0.1 ng/μL Eu3+ labeled cage antibody (Cisbio, 61T66KLB) and 12.5 nM streptavidin-labeled XL665 (Cisbio, 610SAXLB) in the reaction buffer; the compound was dissolved to 10 μM in DMSO, followed by a serial 4-fold dilution with DMSO to a minimum concentration of 0.061 nM. Each concentration was further diluted 40-fold with the reaction buffer. To a 384-well assay plate (Corning, 3674) were added 4 μL of the compound solutions having a series of concentrations and 2 μL of JAK2 kinase reaction solutions. […] An Envision plate reader (Perkin Elmer) was then used to measure the progress of the reaction at wavelengths of 620 nm and 665 nm.

In experiment [2] the target is Non-receptor tyrosine-protein kinase TYK2 (Homo sapiens, UniProt P29597). The experiment in a line: TYK2 Activity Inhibition Assay. The protocol:
The enzymatic activity of TYK2 was assessed by detecting the substrate phosphorylation level in a kinase reaction with a homogeneous time-resolved fluorescence (HTRF) kinase detection kit (Cisbio, 62TK0PEC). A reaction buffer contained an enzyme buffer (1×), 5 mM MgCl2, 1 mM DTT and 0.01% Brij35 from the kit; a human recombinant TYK2 protein (Carna Biosciences, 08-147) was diluted to a kinase reaction solution of 0.25 ng/μL with the reaction buffer; a substrate reaction solution contained 11.25 μM ATP and a biotin-labeled tyrosine kinase substrate diluted to 0.5 μM with the reaction buffer; a detection buffer contained 0.1 ng/μL Eu3+ labeled cage antibody (Cisbio, 61T66KLB) and 25 nM streptavidin-labeled XL665 (Cisbio, 610SAXLB) in the reaction buffer; the compound was dissolved to 10 μM in DMSO, followed by a serial 4-fold dilution with DMSO to a minimum concentration of 0.061 nM. Each concentration was further diluted 40-fold with the reaction buffer. To a 384-well assay plate (Corning, 3674) were added 4 μL of the compound solutions having a series of concentrations and 2 μL of kinase reaction solutions. After being mixed evenly, the mixtures were incubated at room temperature for 15 minutes, and then 4 μL of the substrate reaction solutions were added.

Chain of Tyrosine-protein kinase JAK2 (O60674 whole entry): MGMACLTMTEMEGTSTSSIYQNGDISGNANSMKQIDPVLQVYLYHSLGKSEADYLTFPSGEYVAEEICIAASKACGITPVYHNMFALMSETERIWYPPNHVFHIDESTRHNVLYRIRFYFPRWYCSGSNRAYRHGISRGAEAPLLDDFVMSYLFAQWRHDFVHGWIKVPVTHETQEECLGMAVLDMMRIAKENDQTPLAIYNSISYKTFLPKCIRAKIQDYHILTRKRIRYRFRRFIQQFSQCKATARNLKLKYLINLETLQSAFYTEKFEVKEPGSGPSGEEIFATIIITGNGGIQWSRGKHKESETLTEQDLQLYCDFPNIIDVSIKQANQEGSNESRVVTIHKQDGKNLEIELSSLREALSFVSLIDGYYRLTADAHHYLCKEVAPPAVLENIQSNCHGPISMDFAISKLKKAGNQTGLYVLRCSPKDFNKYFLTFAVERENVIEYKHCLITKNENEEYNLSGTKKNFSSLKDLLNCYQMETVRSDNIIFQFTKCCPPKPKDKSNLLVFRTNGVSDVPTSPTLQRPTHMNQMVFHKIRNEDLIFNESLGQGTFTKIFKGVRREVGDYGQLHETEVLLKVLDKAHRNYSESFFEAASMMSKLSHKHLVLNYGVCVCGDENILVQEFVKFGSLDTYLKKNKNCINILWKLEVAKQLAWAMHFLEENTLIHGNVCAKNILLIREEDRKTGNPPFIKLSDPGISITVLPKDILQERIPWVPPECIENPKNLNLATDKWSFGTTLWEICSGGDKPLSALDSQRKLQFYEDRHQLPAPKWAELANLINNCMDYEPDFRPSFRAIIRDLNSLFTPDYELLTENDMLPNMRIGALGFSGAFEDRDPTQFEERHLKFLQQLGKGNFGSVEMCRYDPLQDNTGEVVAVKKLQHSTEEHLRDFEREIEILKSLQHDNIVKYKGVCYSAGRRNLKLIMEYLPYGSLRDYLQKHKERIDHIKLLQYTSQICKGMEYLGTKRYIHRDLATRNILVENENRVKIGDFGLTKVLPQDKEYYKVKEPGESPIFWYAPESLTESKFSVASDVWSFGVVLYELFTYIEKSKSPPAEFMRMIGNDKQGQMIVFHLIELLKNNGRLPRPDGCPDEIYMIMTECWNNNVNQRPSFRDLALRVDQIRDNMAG
Chain of Non-receptor tyrosine-protein kinase TYK2 (P29597 whole entry): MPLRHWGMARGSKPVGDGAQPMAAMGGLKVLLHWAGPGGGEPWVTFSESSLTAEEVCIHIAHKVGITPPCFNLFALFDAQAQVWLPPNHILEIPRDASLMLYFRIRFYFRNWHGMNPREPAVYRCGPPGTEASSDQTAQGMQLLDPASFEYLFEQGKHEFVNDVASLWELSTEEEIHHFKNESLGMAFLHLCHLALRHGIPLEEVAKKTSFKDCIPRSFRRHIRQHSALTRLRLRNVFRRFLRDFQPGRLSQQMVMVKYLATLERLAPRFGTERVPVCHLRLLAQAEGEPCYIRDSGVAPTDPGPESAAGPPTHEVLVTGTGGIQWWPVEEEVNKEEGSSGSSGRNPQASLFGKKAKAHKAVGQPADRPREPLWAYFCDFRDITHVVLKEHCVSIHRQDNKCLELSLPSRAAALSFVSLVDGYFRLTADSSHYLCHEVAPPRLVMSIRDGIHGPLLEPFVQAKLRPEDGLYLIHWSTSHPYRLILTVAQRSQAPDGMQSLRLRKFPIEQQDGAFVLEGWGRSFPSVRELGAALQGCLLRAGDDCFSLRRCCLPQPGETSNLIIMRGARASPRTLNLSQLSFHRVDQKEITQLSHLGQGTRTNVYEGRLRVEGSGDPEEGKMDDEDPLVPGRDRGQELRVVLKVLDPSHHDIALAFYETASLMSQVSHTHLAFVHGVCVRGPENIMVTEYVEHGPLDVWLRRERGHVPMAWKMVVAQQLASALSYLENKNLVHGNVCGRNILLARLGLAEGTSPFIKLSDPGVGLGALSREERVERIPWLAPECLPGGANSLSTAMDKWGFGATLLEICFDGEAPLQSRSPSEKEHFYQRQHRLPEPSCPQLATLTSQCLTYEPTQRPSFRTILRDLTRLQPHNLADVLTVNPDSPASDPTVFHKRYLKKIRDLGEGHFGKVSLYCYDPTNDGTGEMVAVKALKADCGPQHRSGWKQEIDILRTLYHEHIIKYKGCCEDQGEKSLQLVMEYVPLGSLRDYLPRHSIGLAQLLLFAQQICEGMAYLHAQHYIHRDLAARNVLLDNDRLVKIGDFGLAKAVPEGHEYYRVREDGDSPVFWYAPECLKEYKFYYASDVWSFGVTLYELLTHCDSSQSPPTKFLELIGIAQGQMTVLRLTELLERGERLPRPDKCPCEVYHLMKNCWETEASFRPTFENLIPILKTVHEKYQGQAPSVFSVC

In the case of `O=C1NCCn2c(-c3c(F)cccc3F)nc(Nc3ccc(C(=O)N4CCOCC4)cc3)c21` [US20240246984, Compound 2.], the values for the IC50 in experiment [1] and in experiment [2] were 1.9 nM and 0.2 nM, respectively.
